The target of the experiment is T1, mouse NPY5-receptor (mNPY5) (Mus musculus, UniProt O70342).
T1 construct: The full-length cDNA encoding the mouse NPY5 (mNPY5) receptor was amplified from mouse brain cDNA; expressed in transfected cells
T1 sequence (O70342 1-466): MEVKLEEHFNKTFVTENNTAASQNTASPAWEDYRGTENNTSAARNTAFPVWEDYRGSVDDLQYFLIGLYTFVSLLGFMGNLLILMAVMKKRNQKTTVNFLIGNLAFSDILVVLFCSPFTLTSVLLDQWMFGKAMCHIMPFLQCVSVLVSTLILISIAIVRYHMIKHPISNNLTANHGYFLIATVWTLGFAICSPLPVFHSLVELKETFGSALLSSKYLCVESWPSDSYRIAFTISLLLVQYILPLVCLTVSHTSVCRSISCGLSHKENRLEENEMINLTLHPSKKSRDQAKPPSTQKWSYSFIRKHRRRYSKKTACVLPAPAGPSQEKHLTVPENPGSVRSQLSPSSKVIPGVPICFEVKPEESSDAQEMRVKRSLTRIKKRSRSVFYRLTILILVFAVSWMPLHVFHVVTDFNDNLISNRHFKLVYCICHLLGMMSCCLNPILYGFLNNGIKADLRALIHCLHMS
Description: Radioligand competition binding, [125I]PYY, membranes of HEK293 cells expressing recombinant mouse NPY5 receptor. Conditions: 100 pM [125I]labelled peptide YY, 1 h at 22° C. The source says: The full-length cDNA encoding the mouse NPY5 (mNPY5) receptor was amplified from mouse brain cDNA using specific primers, designed based on the published sequence, and Pfu DNA-Polymerase (Stratagene). The amplification product was subcloned into the mammalian expression vector pcDNA3 using Eco RI and XhoI restriction sites. Positive clones were sequenced and one clone, encoding the published sequence was selected for generation of stable cell clones.
Human embryonic kidney 293 (HEK293) cells were transfected with 10 μg mNPY5 DNA using the lipofectamine reagent (Gibco BRL) according to the manufacturer's instruction. Two days after transfection, geneticin selection (1 mg/ml) was initiated and several stable clones were isolated. One clone was further used for pharmacological characterization.
Human embryonic kidney 293 cells (HEK293), expressing recombinant mouse NPY5-receptor (mNPY5) were broken by three freeze/thawing cycles in hypotonic Tris buffer (5 mM, pH 7.4, 1 mM MgCl2), homogenized and centrifuged at 72,000×g for 15 min. The pellet was washed twice with 75 mM Tris buffer, pH 7.4, containing 25 mM MgCl2 and 250 mM sucrose, 0.1 mM phenylmethylsulfonylfluoride and 0.1 mM 1,10-pheneanthrolin, resuspended in the same buffer and stored in aliquots at −80° C. Protein was determined according to the method of Lowry using bovine serum albumine (BSA) as a standard.

For the compound `Cc1cc(N2CCCC2)c2ccc(COc3ccc(C#N)cc3)cc2n1` [Example 5, 4-(2-Methyl-4-pyrrolidin-1-yl-quinolin-7-ylmethoxy)-benzonitrile], the IC50 is 22 nM.

For the compound `Cc1cc(N2CCCC2)c2ccc(CNc3ccc(C#N)cc3)cc2n1` [Example 13, 4-[(2-Methyl-4-pyrrolidin-1-yl-quinolin-7-ylmethyl)-amino]-benzonitrile], the IC50 was determined as 130 nM.
